Results: ChEMBL document CHEMBL1147400, “Novel antimitotic dibenzocyclo-octadiene lignan constituents of the stem bark of Steganotaenia araliacea” (1993)
In brackets after ≈: the same amount, converted by molar mass.

Experiments:
[1] = Cytotoxicity against human BC1 cells; type: functional; conditions: read-out: ED50 (the source's name)
[2] = Antimitotic activity against rat ASK cells assessed as reversal of astrocyte morphology at 0.8 ug/ml; type: functional
[3] = Antimitotic activity against rat ASK cells assessed as reversal of astrocyte morphology at 0.16 ug/ml; type: functional
Lu1 = test: Cytotoxicity against human Lu1 cells; type: functional; conditions: read-out: ED50 (the source's name)
[4] = Antimitotic activity against rat ASK cells assessed as reversal of astrocyte morphology at 4 ug/ml; type: functional
HT = test: Cytotoxicity against human HT cells; type: functional; conditions: read-out: ED50 (the source's name)
[5] = Antimitotic activity against rat ASK cells assessed as reversal of astrocyte morphology at 20 ug/ml; type: functional
[6] = Cytotoxicity against human U373 cells; type: functional, U-373MG ATCC; conditions: U373 MG, read-out: ED50 (the source's name)
[7] = Antimitotic activity against rat ASK cells assessed as reversal of astrocyte morphology at 100 ug/ml; type: functional
A-431 = test: Cytotoxicity against human A431 cells; type: functional; conditions: read-out: ED50 (the source's name)
SK-MEL-2 = test: Cytotoxicity against human SK-MEL-2 cells; type: functional; conditions: read-out: ED50 (the source's name)
KB = test: Cytotoxicity against human KB cells; type: functional; conditions: read-out: ED50 (the source's name)
LNCaP = test: Cytotoxicity against human LNCAP cells; type: functional; conditions: read-out: ED50 (the source's name)
Col2 = test: Cytotoxicity against human Col2 cells; type: functional; conditions: read-out: ED50 (the source's name)
ZR-75-1 = test: Cytotoxicity against human ZR-75-1 cells; type: functional; conditions: read-out: ED50 (the source's name)
[8] = Cytotoxicity against multidrug-resistant human KBV1 cells; type: functional; conditions: KB-V1, read-out: ED50 (the source's name)
[9] = Antimitotic activity against rat ASK cells assessed as reversal of astrocyte morphology at 0.032 ug/ml; type: functional
[10] = Antimitotic activity against rat ASK cells assessed as reversal of astrocyte morphology at 0.00128 ug/ml; type: functional
[11] = Antimitotic activity against rat ASK cells assessed as reversal of astrocyte morphology at 0.0064 ug/ml; type: functional
Bos taurus [12] = species: Bos taurus; test: Inhibition of calf brain tubulin polymerization by turbidimetric analysis
Bos taurus [13] = species: Bos taurus; test: Inhibition of calf thymus tubulin polymerization by turbidimetric analysis

Structure (SMILES)	EC50 [1]	Activity [2]	Activity [3]	EC50 (Lu1)	Activity [4]	EC50 (HT)	Activity [5]	EC50 [6]	Activity [7]	EC50 (A-431)	EC50 (SK-MEL-2)	EC50 (KB)	EC50 (LNCaP)	EC50 (Col2)	EC50 (ZR-75-1)	EC50 [8]	Activity [9]	Activity [11]	ED50 (Bos taurus [12])	also measured
COc1cc2c(c(OC)c1OC)C[C@H]1COC(=O)[C@@H]1Cc1c-2cc(OC)c(OC)c1OC [STEGANOLIDE A]	8 µg/mL (≈ 18 µM)	0%	0%	5.5 µg/mL (≈ 12.4 µM)	0%	6.5 µg/mL (≈ 14.6 µM)	100%	3.1 µg/mL (≈ 6.97 µM)	100%	5.5 µg/mL (≈ 12.4 µM)	9.2 µg/mL (≈ 20.7 µM)	4.9 µg/mL (≈ 11 µM)	9 µg/mL (≈ 20.2 µM)	5.1 µg/mL (≈ 11.5 µM)	8.9 µg/mL (≈ 20 µM)	0.8 µg/mL (≈ 1.8 µM)	0%	–	–	–
COc1cc2c(c(OC)c1OC)-c1ccc(OC)c(=O)cc1[C@@H](NC(C)=O)CC2 [COLCHICINE]	0.008 µg/mL (≈ 0.02 µM)	70%	0%	0.02 µg/mL (≈ 0.0501 µM)	100%	0.004 µg/mL (≈ 0.01 µM)	100%	0.005 µg/mL (≈ 0.0125 µM)	100%	0.002 µg/mL (≈ 0.00501 µM)	0.007 µg/mL (≈ 0.0175 µM)	0.02 µg/mL (≈ 0.0501 µM)	0.06 µg/mL (≈ 0.15 µM)	0.001 µg/mL (≈ 0.0025 µM)	0.1 µg/mL (≈ 0.25 µM)	3.5 µg/mL (≈ 8.76 µM)	0%	0%	7.4 µg/mL (≈ 18.5 µM)	Activity [10]: 0%
C/C=C(/C)C(=O)O[C@H]1c2cc3c(cc2-c2c(cc(OC)c(OC)c2OC)C[C@H]2C(=O)OC[C@@H]21)OCO3 [STEGANANGIN]	0.7 µg/mL (≈ 1.41 µM)	100%	50%	0.4 µg/mL (≈ 0.806 µM)	100%	0.6 µg/mL (≈ 1.21 µM)	100%	> 20 µg/mL	100%	> 20 µg/mL	0.7 µg/mL (≈ 1.41 µM)	0.4 µg/mL (≈ 0.806 µM)	0.9 µg/mL (≈ 1.81 µM)	0.6 µg/mL (≈ 1.21 µM)	1 µg/mL (≈ 2.01 µM)	0.7 µg/mL (≈ 1.41 µM)	0%	0%	38.1 µg/mL (≈ 76.7 µM)	–
COc1cc2c(c(OC)c1OC)-c1cc3c(cc1C(=O)[C@H]1COC(=O)[C@@H]1C2)OCO3	1.8 µg/mL (≈ 4.36 µM)	100%	0%	1 µg/mL (≈ 2.42 µM)	100%	0.7 µg/mL (≈ 1.7 µM)	100%	> 20 µg/mL	100%	> 20 µg/mL	> 20 µg/mL	1.5 µg/mL (≈ 3.64 µM)	2 µg/mL (≈ 4.85 µM)	2.1 µg/mL (≈ 5.09 µM)	> 20 µg/mL	7.1 µg/mL (≈ 17.2 µM)	0%	0%	68.2 µg/mL (≈ 165 µM)	–
COC[C@@H]1Cc2cc3c(cc2-c2c(ccc(OC)c2OC)C[C@@H]1C(=O)OC)OCO3	> 20 µg/mL	0%	–	> 20 µg/mL	0%	> 20 µg/mL	0%	> 20 µg/mL	40%	> 20 µg/mL	> 20 µg/mL	> 20 µg/mL	> 20 µg/mL	> 20 µg/mL	> 20 µg/mL	> 20 µg/mL	–	–	–	ED50 (Bos taurus [13]): 76.9 µg/mL (≈ 186 µM)
COC[C@@H]1Cc2cc3c(cc2-c2c(c(OC)cc(OC)c2OC)C[C@H]1C(=O)OC)OCO3	17.3 µg/mL (≈ 38.9 µM)	–	–	5.5 µg/mL (≈ 12.4 µM)	0%	11.5 µg/mL (≈ 25.9 µM)	100%	7.8 µg/mL (≈ 17.5 µM)	100%	6.7 µg/mL (≈ 15.1 µM)	14.9 µg/mL (≈ 33.5 µM)	9.2 µg/mL (≈ 20.7 µM)	> 20 µg/mL	9.6 µg/mL (≈ 21.6 µM)	4.7 µg/mL (≈ 10.6 µM)	0.8 µg/mL (≈ 1.8 µM)	–	–	–	ED50 (Bos taurus [13]): 59.3 µg/mL (≈ 133 µM)
C/C=C(/C)C(=O)O[C@@H]1c2cc3c(cc2-c2c(cc(OC)c(OC)c2OC)C[C@H]2C(=O)OC[C@H]12)OCO3 [EPISTEGANANGIN]	1.1 µg/mL (≈ 2.22 µM)	0%	–	6.9 µg/mL (≈ 13.9 µM)	0%	7.4 µg/mL (≈ 14.9 µM)	0%	> 20 µg/mL	100%	> 20 µg/mL	20 µg/mL (≈ 40.3 µM)	7.4 µg/mL (≈ 14.9 µM)	> 20 µg/mL	> 20 µg/mL	13.9 µg/mL (≈ 28 µM)	0.9 µg/mL (≈ 1.81 µM)	–	–	78.1 µg/mL (≈ 157 µM)	–
COc1cc2c(c(OC)c1OC)-c1cc3c(cc1[C@@H](OC(C)=O)C1COC(=O)[C@H]1C2)OCO3 (stereo not given in full) [STEGANACIN]	0.6 µg/mL (≈ 1.31 µM)	100%	100%	0.4 µg/mL (≈ 0.876 µM)	100%	0.7 µg/mL (≈ 1.53 µM)	100%	0.1 µg/mL (≈ 0.219 µM)	100%	0.2 µg/mL (≈ 0.438 µM)	> 20 µg/mL	0.1 µg/mL (≈ 0.219 µM)	–	0.4 µg/mL (≈ 0.876 µM)	5 µg/mL (≈ 11 µM)	0.2 µg/mL (≈ 0.438 µM)	0%	–	1.7 µg/mL (≈ 3.72 µM)	Activity (Bos taurus [13]): Dose-dependent effect
